Test results published in patent US11459315B2, “Modulators of methyl modifying enzymes, compositions and uses thereof” (Constellation Pharmaceuticals, Inc., priority 2017, dated 2022).
Read-outs that look alike come from different tables or passages of the source.

Legend:
PRC2 containing wt EZH2 = PRC2 containing wt EZH2 (Homo sapiens (Human), UniProt Q15910); experiment: EZH2 biochemical assay (IC50), 3H-SAM incorporation into biotinylated H3 peptide; details: 30 pM PRC2 containing wt EZH2, 3-5 h pre-incubation
Outline: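 Activity was measured as ³H-methyl transfer to a biotinylated H3K27me1 peptide over 18-22 h at room temperature, with capture on streptavidin flash plates. The 30 pM wt-EZH2 PRC2 complex was first pre-incubated 3-5 h with compound, 450 nM SAM/450 nM ³H-SAM and 2 µM H3K27me3 activator (pH 8.5, 0.8% DMSO). Four-parameter fits gave IC50.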

[1] = tested on: H3K27me3 mark in HeLa cells (EZH2); experiment: H3K27me3 Alpha Hela Assay (AlphaLISA); format: cell-based; details: Homo sapiens, HeLa, 72 h, HeLa cells, 72 hrs; read-out: EZH2 Cell H3K27me3 Alpha HeLa (EC50 K27me3)
Outline: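 HeLa cells (1,000/well) treated with ten 3-fold compound doses for 72 h at 37 °C; lysates extracted and H3K27me3 detected by AlphaLISA with anti-K27me3 acceptor beads, biotinylated anti-H3 (3 nM) and streptavidin donor beads. EC50 from DMSO-normalized dose-response curves; duplicate plate assessed viability.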

PRC2 containing wt EZH2, sequence (Q15910 whole entry): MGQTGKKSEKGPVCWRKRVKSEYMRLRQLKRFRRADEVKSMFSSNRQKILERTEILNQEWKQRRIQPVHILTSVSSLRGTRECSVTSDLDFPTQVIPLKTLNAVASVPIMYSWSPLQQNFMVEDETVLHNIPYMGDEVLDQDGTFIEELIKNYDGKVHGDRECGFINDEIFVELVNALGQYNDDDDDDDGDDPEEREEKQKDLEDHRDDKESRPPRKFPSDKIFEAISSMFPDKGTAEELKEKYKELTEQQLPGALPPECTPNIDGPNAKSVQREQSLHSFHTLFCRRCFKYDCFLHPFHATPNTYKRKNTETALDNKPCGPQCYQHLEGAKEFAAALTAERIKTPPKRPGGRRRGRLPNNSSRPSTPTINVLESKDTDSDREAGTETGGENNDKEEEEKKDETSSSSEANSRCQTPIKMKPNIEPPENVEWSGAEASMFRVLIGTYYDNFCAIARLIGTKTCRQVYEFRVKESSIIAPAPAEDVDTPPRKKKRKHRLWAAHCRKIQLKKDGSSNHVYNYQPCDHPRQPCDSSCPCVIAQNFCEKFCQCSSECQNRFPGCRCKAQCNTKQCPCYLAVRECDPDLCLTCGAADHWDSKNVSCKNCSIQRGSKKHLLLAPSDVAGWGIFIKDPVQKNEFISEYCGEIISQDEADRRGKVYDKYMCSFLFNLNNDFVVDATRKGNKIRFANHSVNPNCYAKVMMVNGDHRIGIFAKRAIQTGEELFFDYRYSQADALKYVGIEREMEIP
PRC2 containing wt EZH2, sequence (O75530 whole entry partner): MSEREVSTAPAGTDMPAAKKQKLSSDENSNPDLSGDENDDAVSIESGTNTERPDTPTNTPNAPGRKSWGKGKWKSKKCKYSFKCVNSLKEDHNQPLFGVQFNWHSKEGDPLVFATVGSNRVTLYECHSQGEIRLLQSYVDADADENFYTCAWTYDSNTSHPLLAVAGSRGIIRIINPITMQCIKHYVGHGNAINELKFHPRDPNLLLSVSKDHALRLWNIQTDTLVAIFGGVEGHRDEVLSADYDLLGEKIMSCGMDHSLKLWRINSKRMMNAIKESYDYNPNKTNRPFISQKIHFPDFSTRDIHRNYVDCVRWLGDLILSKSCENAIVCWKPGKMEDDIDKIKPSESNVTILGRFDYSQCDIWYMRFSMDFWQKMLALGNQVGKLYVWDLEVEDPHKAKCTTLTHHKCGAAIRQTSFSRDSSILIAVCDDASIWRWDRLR
PRC2 containing wt EZH2, sequence (Q15022 whole entry partner): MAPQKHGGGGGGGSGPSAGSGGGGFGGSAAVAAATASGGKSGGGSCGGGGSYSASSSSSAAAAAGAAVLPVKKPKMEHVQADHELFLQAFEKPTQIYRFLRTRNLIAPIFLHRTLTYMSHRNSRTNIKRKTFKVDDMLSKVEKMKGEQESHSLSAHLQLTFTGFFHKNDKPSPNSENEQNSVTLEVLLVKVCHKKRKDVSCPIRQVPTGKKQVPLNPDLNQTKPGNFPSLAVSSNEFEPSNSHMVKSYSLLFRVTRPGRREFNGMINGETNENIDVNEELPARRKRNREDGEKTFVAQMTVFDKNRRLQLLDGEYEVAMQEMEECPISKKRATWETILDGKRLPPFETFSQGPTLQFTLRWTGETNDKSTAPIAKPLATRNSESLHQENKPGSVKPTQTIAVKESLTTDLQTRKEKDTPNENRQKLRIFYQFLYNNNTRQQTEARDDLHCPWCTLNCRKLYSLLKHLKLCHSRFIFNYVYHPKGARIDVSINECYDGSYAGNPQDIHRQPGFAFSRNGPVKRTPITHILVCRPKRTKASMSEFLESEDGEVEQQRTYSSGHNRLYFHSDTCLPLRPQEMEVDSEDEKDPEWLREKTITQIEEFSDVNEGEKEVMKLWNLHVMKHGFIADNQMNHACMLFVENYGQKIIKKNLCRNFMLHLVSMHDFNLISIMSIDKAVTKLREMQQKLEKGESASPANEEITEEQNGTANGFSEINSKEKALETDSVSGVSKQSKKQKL
PRC2 containing wt EZH2, sequence (Q09028 whole entry partner): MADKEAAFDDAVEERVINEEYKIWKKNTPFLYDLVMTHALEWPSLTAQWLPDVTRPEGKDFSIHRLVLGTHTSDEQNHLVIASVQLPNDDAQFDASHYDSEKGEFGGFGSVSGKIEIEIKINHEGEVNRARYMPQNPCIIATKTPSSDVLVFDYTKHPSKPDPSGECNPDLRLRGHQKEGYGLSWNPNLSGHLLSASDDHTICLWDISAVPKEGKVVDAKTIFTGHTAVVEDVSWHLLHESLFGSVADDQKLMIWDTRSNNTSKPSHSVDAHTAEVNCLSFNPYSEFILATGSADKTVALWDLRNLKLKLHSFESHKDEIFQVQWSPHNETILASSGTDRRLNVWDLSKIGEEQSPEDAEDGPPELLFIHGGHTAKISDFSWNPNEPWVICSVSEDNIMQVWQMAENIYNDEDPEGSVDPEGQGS
PRC2 containing wt EZH2, sequence (Q6ZN18 whole entry partner): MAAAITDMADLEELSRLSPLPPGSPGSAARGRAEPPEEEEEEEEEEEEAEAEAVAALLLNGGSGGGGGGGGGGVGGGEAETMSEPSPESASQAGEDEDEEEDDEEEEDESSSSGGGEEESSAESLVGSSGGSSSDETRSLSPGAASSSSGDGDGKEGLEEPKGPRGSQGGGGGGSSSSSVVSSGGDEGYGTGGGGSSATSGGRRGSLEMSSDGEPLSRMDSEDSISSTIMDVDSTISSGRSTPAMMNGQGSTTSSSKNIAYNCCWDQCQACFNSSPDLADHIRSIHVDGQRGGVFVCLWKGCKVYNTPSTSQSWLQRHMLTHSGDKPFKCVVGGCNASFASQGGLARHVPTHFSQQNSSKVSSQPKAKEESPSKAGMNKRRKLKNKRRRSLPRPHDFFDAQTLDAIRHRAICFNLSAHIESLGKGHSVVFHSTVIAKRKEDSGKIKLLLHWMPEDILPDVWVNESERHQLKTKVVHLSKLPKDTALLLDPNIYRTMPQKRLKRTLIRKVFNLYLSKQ

## CSc1cc(C)[nH]c(=O)c1CNC(=O)c1c(C)n([C@H](C)[C@H]2CCN(C3CC3)C[C@H]2F)c2ccccc12 [Example 56, 1-((R)-1-((3S,4R)-1-cyclopropyl-3-fluoropiperidin-4-yl)ethyl)-2-methyl-N-((6-methyl-4-(methylthio)-2-oxo-1,2-dihydropyridin-3-yl)methyl)-1H-indole-3-carboxamide]
PRC2 containing wt EZH2; EZH2 (IC50)
  IC50: < 0.5 nM
[1]
  EC50: < 10 nM

## CSc1cc(C)[nH]c(=O)c1CNC(=O)c1c(C)n([C@H](C)C2CCN(C3CC3)CC2)c2cc(F)ccc12 [Example 57, (R)-1-(1-(1-cyclopropylpiperidin-4-yl)ethyl)-6-fluoro-2-methyl-N-((6-methyl-4-(methylthio)-2-oxo-1,2-dihydropyridin-3-yl)methyl)-1H-indole-3-carboxamide]
PRC2 containing wt EZH2; EZH2 (IC50)
  IC50: < 0.5 nM
[1]
  EC50: < 10 nM

## CSc1cc(C)[nH]c(=O)c1CNC(=O)c1c(C)n([C@H](C)C2CCN(C3CC3)CC2)c2ncc(F)cc12 [Example 58, (R)-1-(1-(1-cyclopropylpiperidin-4-yl)ethyl)-5-fluoro-2-methyl-N-((6-methyl-4-(methylthio)-2-oxo-1,2-dihydropyridin-3-yl)methyl)-1H-pyrrolo[2,3-b]pyridine-3-carboxamide]
PRC2 containing wt EZH2; EZH2 (IC50)
  IC50: < 0.5 nM
[1]
  EC50: < 10 nM

## CSc1cc(C)[nH]c(=O)c1CNC(=O)c1c(C)n([C@H](C)C2CCN(CC(F)F)CC2)c2ncccc12 [Example 59, (R)-1-(1-(1-(2,2-difluoroethyl)piperidin-4-yl)ethyl)-2-methyl-N-((6-methyl-4-(methylthio)-2-oxo-1,2-dihydropyridin-3-yl)methyl)-1H-pyrrolo[2,3-b]pyridine-3-carboxamide]
PRC2 containing wt EZH2; EZH2 (IC50)
  IC50: < 0.5 nM
[1]
  EC50: < 10 nM

## CSc1cc(C)[nH]c(=O)c1CNC(=O)c1c(C)n([C@H](C)C2CCC(NC(C)(C)C)CC2)c2ccccc12 (stereo partly drawn) [Example 61, (R)-1-(1-(4-(tert-butylamino)cyclohexyl)ethyl)-2-methyl-N-((6-methyl-4-(methylthio)-2-oxo-1,2-dihydropyridin-3-yl)methyl)-1H-indole-3-carboxamide]
PRC2 containing wt EZH2; read-out: EZH2 (IC50)
  IC50: < 0.5 nM
[1]
  EC50: 10 to 100 nM

## CSc1cc(C)[nH]c(=O)c1CNC(=O)c1c(C)n([C@H](C)C2CCC(NC3COC3)CC2)c2ncncc12 (stereo partly drawn) [Example 63, 6-methyl-N-((6-methyl-4-(methylthio)-2-oxo-1,2-dihydropyridin-3-yl)methyl)-7-((R)-1-(4-(oxetan-3-ylamino)cyclohexyl)ethyl)-7H-pyrrolo[2,3-d]pyrimidine-5-carboxamide]
PRC2 containing wt EZH2; read-out: EZH2 (IC50)
  IC50: < 0.5 nM
[1]
  EC50: 10 to 100 nM

## CSc1cc(C)[nH]c(=O)c1CNC(=O)c1c(C)n([C@H](C)C2CCC(N3CC(F)C3)CC2)c2ncccc12 (stereo partly drawn) [Example 65, 1-((R)-1-(4-(3-fluoroazetidin-1-yl)cyclohexyl)ethyl)-2-methyl-N-((6-methyl-4-(methylthio)-2-oxo-1,2-dihydropyridin-3-yl)methyl)-1H-pyrrolo[2,3-b]pyridine-3-carboxamide]
PRC2 containing wt EZH2; EZH2 (IC50)
  IC50: < 0.5 nM
[1]
  EC50: < 10 nM

## CSc1cc(C)[nH]c(=O)c1CNC(=O)c1c(C)n([C@H](C)C2CCN(C3CC(F)C3)CC2)c2ncccc12 (stereo partly drawn) [Example 66, (R)-1-(1-(1-(3-fluorocyclobutyl)piperidin-4-yl)ethyl)-2-methyl-N-((6-methyl-4-(methylthio)-2-oxo-1,2-dihydropyridin-3-yl)methyl)-1H-pyrrolo[2,3-b]pyridine-3-carboxamide]
PRC2 containing wt EZH2; EZH2 (IC50)
  IC50: < 0.5 nM
[1]
  EC50: 10 to 100 nM

## CSc1cc(C)[nH]c(=O)c1CNC(=O)c1c(C)n([C@H](C)C2CCC(N3CC(F)C3)CC2)c2ncncc12 (stereo partly drawn) [Example 68, 7-((R)-1-(4-(3-fluoroazetidin-1-yl)cyclohexyl)ethyl)-6-methyl-N-((6-methyl-4-(methylthio)-2-oxo-1,2-dihydropyridin-3-yl)methyl)-7H-pyrrolo[2,3-d]pyrimidine-5-carboxamide]
PRC2 containing wt EZH2; EZH2 (IC50)
  IC50: < 0.5 nM
[1]
  EC50: < 10 nM

## CSc1cc(C)[nH]c(=O)c1CNC(=O)c1c(C)n([C@H](C)C2CCN(C3CC3)CC2)c2ncc(Cl)cc12 [Example 69, (R)-5-chloro-1-(1-(1-cyclopropylpiperidin-4-yl)ethyl)-2-methyl-N-((6-methyl-4-(methylthio)-2-oxo-1,2-dihydropyridin-3-yl)methyl)-1H-pyrrolo[2,3-b]pyridine-3-carboxamide]
PRC2 containing wt EZH2; EZH2 (IC50)
  IC50: < 0.5 nM
[1]
  EC50: < 10 nM

## CSc1cc(C)[nH]c(=O)c1CNC(=O)c1c(C)n([C@H](C)[C@H]2CCN(C)[C@H](C(F)(F)F)C2)c2ccccc12 [Example 71, 2-methyl-1-((R)-1-((2S,4S)-1-methyl-2-(trifluoromethyl)piperidin-4-yl)ethyl)-N-((6-methyl-4-(methylthio)-2-oxo-1,2-dihydropyridin-3-yl)methyl)-1H-indole-3-carboxamide]
PRC2 containing wt EZH2; EZH2 (IC50)
  IC50: < 0.5 nM
[1]
  EC50: < 10 nM

## CSc1cc(C)[nH]c(=O)c1CNC(=O)c1c(C)n([C@H](C)C2CCC(N3CCCC3=O)CC2)c2ccccc12 (stereo partly drawn) [Example 72, 2-methyl-N-((6-methyl-4-(methylthio)-2-oxo-1,2-dihydropyridin-3-yl)methyl)-1-((R)-1-(4-(2-oxopyrrolidin-1-yl)cyclohexyl)ethyl)-1H-indole-3-carboxamide]
PRC2 containing wt EZH2; read-out: EZH2 (IC50)
  IC50: < 0.5 nM
[1]
  EC50: 10 to 100 nM

## CSc1cc(C)[nH]c(=O)c1CNC(=O)c1c(C)n([C@H](C)C2CCN(CC(F)(F)F)CC2)c2ncncc12 [Example 73, (R)-6-methyl-N-((6-methyl-4-(methylthio)-2-oxo-1,2-dihydropyridin-3-yl)methyl)-7-(1-(1-(2,2,2-trifluoroethyl)piperidin-4-yl)ethyl)-7H-pyrrolo[2,3-d]pyrimidine-5-carboxamide]
PRC2 containing wt EZH2; EZH2 (IC50)
  IC50: < 0.5 nM
[1]
  EC50: < 10 nM

## CSc1cc(C)[nH]c(=O)c1CNC(=O)c1c(C)n([C@H](C)C2CCC(N3CCOC3=O)CC2)c2ccccc12 (stereo partly drawn) [Example 74, 2-methyl-N-((6-methyl-4-(methylthio)-2-oxo-1,2-dihydropyridin-3-yl)methyl)-1-((R)-1-(4-(2-oxooxazolidin-3-yl)cyclohexyl)ethyl)-1H-indole-3-carboxamide]
PRC2 containing wt EZH2; read-out: EZH2 (IC50)
  IC50: < 0.5 nM
[1]
  EC50: 10 to 100 nM

## COC1CN(C2CCC([C@@H](C)n3c(C)c(C(=O)NCc4c(SC)cc(C)[nH]c4=O)c4cncnc43)CC2)C1 (stereo partly drawn) [Example 77, 7-((R)-1-(4-(3-methoxyazetidin-1-yl)cyclohexyl)ethyl)-6-methyl-N-((6-methyl-4-(methylthio)-2-oxo-1,2-dihydropyridin-3-yl)methyl)-7H-pyrrolo[2,3-d]pyrimidine-5-carboxamide]
PRC2 containing wt EZH2; EZH2 (IC50)
  IC50: < 0.5 nM
[1]
  EC50: 10 to 100 nM

## CSc1cc(C)[nH]c(=O)c1CNC(=O)c1c(C)n([C@H](C)C2CCC(N3CC(C)(F)C3)CC2)c2ncccc12 (stereo partly drawn) [Example 80, 1-((R)-1-(4-(3-fluoro-3-methylazetidin-1-yl)cyclohexyl)ethyl)-2-methyl-N-((6-methyl-4-(methylthio)-2-oxo-1,2-dihydropyridin-3-yl)methyl)-1H-pyrrolo[2,3-b]pyridine-3-carboxamide]
PRC2 containing wt EZH2; EZH2 (IC50)
  IC50: < 0.5 nM
[1]
  EC50: 10 to 100 nM

## CSc1cc(C)[nH]c(=O)c1CNC(=O)c1c(C)n([C@H](C)C2CCN(C3CC(F)(F)C3)CC2)c2ccccc12 [Example 81, (R)-1-(1-(1-(3,3-difluorocyclobutyl)piperidin-4-yl)ethyl)-2-methyl-N-((6-methyl-4-(methylthio)-2-oxo-1,2-dihydropyridin-3-yl)methyl)-1H-indole-3-carboxamide]
PRC2 containing wt EZH2; EZH2 (IC50)
  IC50: < 0.5 nM
[1]
  EC50: 10 to 100 nM

## CSc1cc(C)[nH]c(=O)c1CNC(=O)c1c(C)n([C@H](C)C2CCC(N3CC(F)C3)CC2)c2c(F)cccc12 (stereo partly drawn) [Example 82, 7-fluoro-1-((R)-1-(4-(3-fluoroazetidin-1-yl)cyclohexyl)ethyl)-2-methyl-N-((6-methyl-4-(methylthio)-2-oxo-1,2-dihydropyridin-3-yl)methyl)-1H-indole-3-carboxamide]
PRC2 containing wt EZH2; EZH2 (IC50)
  IC50: < 0.5 nM
[1]
  EC50: < 10 nM

## CSc1cc(C)[nH]c(=O)c1CNC(=O)c1c(C)n([C@H](C)C2CCC(N3CC(F)C3)CC2)c2cc(F)ccc12 (stereo partly drawn) [Example 83, (R)-6-fluoro-1-(1-(4-(3-fluoroazetidin-1-yl)cyclohexyl)ethyl)-2-methyl-N-((6-methyl-4-(methylthio)-2-oxo-1,2-dihydropyridin-3-yl)methyl)-1H-indole-3-carboxamide]
PRC2 containing wt EZH2; EZH2 (IC50)
  IC50: < 0.5 nM
[1]
  EC50: < 10 nM

## CCSc1cc(C)[nH]c(=O)c1CNC(=O)c1c(C)n([C@H](C)C2CCN(CC(F)(F)F)CC2)c2ccccc12 [Example 86, (R)-N-((4-(ethylthio)-6-methyl-2-oxo-1,2-dihydropyridin-3-yl)methyl)-2-methyl-1-(1-(1-(2,2,2-trifluoroethyl)piperidin-4-yl)ethyl)-1H-indole-3-carboxamide]
PRC2 containing wt EZH2; EZH2 (IC50)
  IC50: 0.5 to 5 nM
[1]
  EC50: 10 to 100 nM

## CSc1cc(C)[nH]c(=O)c1CNC(=O)c1c(C)n([C@H](C)C2CCN(CC(F)(F)F)CC2)c2cccc(C)c12 [Example 87, (R)-2,4-dimethyl-N-((6-methyl-4-(methylthio)-2-oxo-1,2-dihydropyridin-3-yl)methyl)-1-(1-(1-(2,2,2-trifluoroethyl)piperidin-4-yl)ethyl)-1H-indole-3-carboxamide]
PRC2 containing wt EZH2; EZH2 (IC50)
  IC50: 0.5 to 5 nM
[1]
  EC50: < 10 nM

## CSc1cc(C)[nH]c(=O)c1CNC(=O)c1c(C)n([C@H](C)C2CCN(CCC(F)(F)F)CC2)c2ccccc12 [Example 88, (R)-2-methyl-N-((6-methyl-4-(methylthio)-2-oxo-1,2-dihydropyridin-3-yl)methyl)-1-(1-(1-(3,3,3-trifluoropropyl)piperidin-4-yl)ethyl)-1H-indole-3-carboxamide]
PRC2 containing wt EZH2; EZH2 (IC50)
  IC50: < 0.5 nM
[1]
  EC50: 10 to 100 nM
